One assay has as its target T1, hLigI (Homo sapiens, UniProt P18858).
T1 construct: made in house
Description: High-throughput fluorescence-based DNA joining (ligation) assay. Format: biochemical. Particulars: for inhibition at 100 µM: read-out: % of inhibition @ 100 μM (Helen's data) hLigI. The procedure:
Candidate ligase inhibitors identified by CADD were assayed for their ability to inhibit hLigI and T4 DNA ligase using a high-throughput, fluorescence energy transfer-based DNA joining assay (22). Duplicate reactions (30 μL) containing 10 pmol of nicked DNA substrate and either 0.25 pmol of hLigI or 10 units of T4 DNA ligase were incubated in the presence or absence of 100 μmol/L of the putative inhibitor. DNA binding by the candidate DNA ligase inhibitors was measured by displacement of ethidium bromide from DNA as previously described (30).
(§1) The method for screening compounds comprises testing the compound for the ability to inhibit human DNA ligases I, III and IV with a high throughput fluorescence-based ligation assay. In this assay, phosphodiester bond formation covalently links together two oligonucleotides, one of which is a fluorescent donor AF488 that is 11 nucleotides from the 3′ terminus and the other contains a fluorescence acceptor and quencher, BHQ1 that is 15 nucleotides from the 5′ terminus. When these oligonucleotides are present in separate duplexes and in the same nicked or intact duplex, there is no significant quenching of fluorescence because the donor and acceptor are too far apart. As single-strands neither the AF488 oligonucleotide nor the BHQ1 oligonucleotides have significant secondary structure. However, when these oligonucleotides are ligated together, the resultant single strand forms a stable hairpin structure, in which the AF488 and BHQ1 groups are very close together, resulting in efficient intra-molecular quenching of fluorescence. Thus, in the DNA joining assay, the DNA substrate is denatured after incubation with the DNA ligase and then renatured in the presence of a 20-fold excess of an oligonucleotide that is identical to the ligated strand containing the fluorescent door and acceptor except that it lacks these modifications. Using this assay, DNA joining, which results in reduced fluorescence at 518 nm, can be measured rapidly, quantitatively and with high-throughput using a fluorescence plate reader.
(§2) Applicants developed a novel high throughput fluorescence-based ligation assay by modifying the sequence of the oligos to optimize hairpin formation by the single strand ligated product of the high throughput fluorescence-based ligation assay of Chen et al (22). […] Compound stock solutions, which were 10 mM in 0.5% DMSO, were diluted in 0.5% DMSO. Human DNA ligases I and III were assayed with a nicked DNA substrate whereas as the substrate for human DNA ligase IV was two oligonucleotide duplexes with short complementary single strand ends.

The next assay concerns the target T2, human DNA ligase III (Homo sapiens, UniProt P49916).
T2 sequence (P49916 1-862 isoform P49916-4): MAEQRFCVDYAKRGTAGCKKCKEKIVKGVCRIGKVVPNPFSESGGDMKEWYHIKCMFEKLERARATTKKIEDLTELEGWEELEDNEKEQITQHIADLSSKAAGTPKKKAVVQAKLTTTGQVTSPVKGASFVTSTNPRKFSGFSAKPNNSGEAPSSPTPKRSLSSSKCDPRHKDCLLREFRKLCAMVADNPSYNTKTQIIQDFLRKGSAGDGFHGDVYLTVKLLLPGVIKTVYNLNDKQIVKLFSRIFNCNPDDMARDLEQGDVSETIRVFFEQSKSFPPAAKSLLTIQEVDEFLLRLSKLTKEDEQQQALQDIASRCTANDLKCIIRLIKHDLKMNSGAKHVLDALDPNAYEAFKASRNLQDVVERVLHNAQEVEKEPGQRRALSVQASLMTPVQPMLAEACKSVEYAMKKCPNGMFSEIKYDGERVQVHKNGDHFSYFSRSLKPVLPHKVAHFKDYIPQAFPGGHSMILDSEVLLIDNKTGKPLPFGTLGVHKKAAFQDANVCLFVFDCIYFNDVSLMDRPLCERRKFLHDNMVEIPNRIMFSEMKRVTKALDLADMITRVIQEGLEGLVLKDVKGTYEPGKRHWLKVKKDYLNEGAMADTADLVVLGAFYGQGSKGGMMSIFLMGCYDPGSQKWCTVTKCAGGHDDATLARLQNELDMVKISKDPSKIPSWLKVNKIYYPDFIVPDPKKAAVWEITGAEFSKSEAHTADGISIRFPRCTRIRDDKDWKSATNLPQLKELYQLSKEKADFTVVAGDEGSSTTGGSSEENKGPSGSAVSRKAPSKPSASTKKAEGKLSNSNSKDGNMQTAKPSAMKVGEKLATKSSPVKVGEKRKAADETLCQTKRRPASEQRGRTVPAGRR
The assay is described as above. Format: biochemical. The note with it: for inhibition at 100 µM: read-out: % of inhibition @ 100 μM (Helen's data) hLigIII.
Text: as §1, §2

The next assay deals with human DNA ligase IV (Homo sapiens, UniProt P49917). The assay is described as above. Type of assay: biochemical. Particulars: 100 μM; for inhibition at 100 µM: read-out: % of inhibition @ 100 μM (Helen's data) hLigIV.
human DNA ligase IV, sequence (P49917 whole entry): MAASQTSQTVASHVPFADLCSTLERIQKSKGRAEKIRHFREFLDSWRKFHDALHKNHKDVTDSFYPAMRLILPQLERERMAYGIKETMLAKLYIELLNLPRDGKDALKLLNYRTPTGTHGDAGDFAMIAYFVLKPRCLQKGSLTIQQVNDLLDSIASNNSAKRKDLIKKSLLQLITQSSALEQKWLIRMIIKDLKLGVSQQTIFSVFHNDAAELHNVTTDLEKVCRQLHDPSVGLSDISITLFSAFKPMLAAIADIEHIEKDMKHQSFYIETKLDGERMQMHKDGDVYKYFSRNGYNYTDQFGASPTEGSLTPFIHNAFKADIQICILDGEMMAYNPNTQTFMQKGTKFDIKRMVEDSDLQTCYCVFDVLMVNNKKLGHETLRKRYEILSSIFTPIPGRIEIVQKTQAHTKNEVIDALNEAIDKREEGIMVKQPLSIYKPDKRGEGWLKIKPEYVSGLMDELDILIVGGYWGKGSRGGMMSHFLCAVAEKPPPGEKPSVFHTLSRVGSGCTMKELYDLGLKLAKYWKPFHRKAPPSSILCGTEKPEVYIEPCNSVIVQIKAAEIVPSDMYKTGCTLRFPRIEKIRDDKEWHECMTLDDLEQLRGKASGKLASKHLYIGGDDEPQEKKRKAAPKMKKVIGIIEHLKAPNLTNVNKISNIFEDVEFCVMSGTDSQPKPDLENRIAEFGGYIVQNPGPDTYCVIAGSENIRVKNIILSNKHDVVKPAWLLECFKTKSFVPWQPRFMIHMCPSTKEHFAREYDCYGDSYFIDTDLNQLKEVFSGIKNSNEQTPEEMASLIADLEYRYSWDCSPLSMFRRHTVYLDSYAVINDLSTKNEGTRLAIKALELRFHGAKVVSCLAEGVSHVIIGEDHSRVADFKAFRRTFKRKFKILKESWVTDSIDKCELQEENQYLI
human DNA ligase IV, sequence (Q13426 whole entry partner): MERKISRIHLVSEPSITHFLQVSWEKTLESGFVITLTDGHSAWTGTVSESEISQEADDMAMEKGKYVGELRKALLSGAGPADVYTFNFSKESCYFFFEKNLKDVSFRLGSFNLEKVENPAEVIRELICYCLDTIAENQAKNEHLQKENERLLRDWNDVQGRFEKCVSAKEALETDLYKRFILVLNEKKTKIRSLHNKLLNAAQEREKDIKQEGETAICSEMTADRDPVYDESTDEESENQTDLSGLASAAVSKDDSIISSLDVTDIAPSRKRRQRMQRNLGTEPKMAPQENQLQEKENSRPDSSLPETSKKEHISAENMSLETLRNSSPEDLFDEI
Text: as §1, §2

Assay [1] concerns MCF10A cells. The assay is described as follows: Screen for potentiation of DNA damaging agents (MMS, camptothecin, cis-platinum, 3 aminobenzamide, ionizing radiation). Particulars: compound alone vs combination with MMS (100 μM); 1 = no sensitization. Type of assay: cell-based, human. The text has this:
The 192 human DNA ligase inhibitors were screened in parallel for effects on proliferation and the ability to potentiate the effects of several DNA damaging agents using two cell human lines, a colon cancer line HCT116 and a normal breast epithelial cell line MCF10A using a Biomek FX Laboratory Automation Workstation as described (23). The DNA damaging agents used, methyl methanesulfonate (MMS), camptothecin, cis-platinum, 3 aminobenzamide and ionizing radiation, are representatives of classes of agents used to treat cancer. Briefly, HCT116 and MCF10A cells were plated in 96 well plates such that the cultures were about 80% confluent after 5 days incubation. Compounds were added to the cultures at either 15 μM or 50 μM 1 day after plating. After incubation for 3 days, cell lysed in a solution containing 1.2% Igepal CA-630 and SYBR green that stains DNA (1:1000, Molecular Probes, Eugene, Oreg.). Subsequently, fluorescence was measured per well. The studies with DNA damaging agents were performed as follows. […] Cultures were incubated for 3 days and then treated as above.

For another assay, the system named is HCT116 cells. The assay is described as follows: MTT cell growth assay. The note with it: Homo sapiens, HCT-116. Format: cell-based, human. The procedure:
(§3) The activity of hits from the initial screen was further validated using the MTT assay. Briefly, MCF10A and HCT116 cells were seeded in 96 well plates at 300 and 1200 cells per well, respectively, and allowed to adhere overnight. The following day, serial dilutions of compounds in media were added to the cells in a final volume 200 μl. After incubation for 5 days, MTT reagent (3-(4,5-dimthylthiazol-2-yl)-2,5-diphenyltatrazolium) was added and incubation was continued for 4 h. Formazan crystals generated by reduction of the MTT reagent in mitochondria were solubilized with isopropanol prior to the measurement of absorbance at 560 nm wavelength in a plate reader.
After incubation for 5 days, cell growth was measured by the MTT assay (16).
For orientation: Formazan colour is commonly taken as a measure of viable cells.

Assay [2] relates to MCF10A cells. Description: MTT cell growth assay. Type of assay: cell-based, human. Particulars: for IC50: Homo sapiens, MCF-10A. The procedure:
as §3
To extend the results of the […] cell culture screening assay, a subset of compounds were tested in larger cultures. Different concentrations of Compounds 67 and 151 were added to asynchronous subconfluent populations of HCT116 and MCF10A cells. Asynchronous subconfluent populations of HCT116 and MCF10A cells were pre-treated with different concentrations of compound 64 prior to the addition of 3 aminobenzamide (2 mM) MMS (100 μM) or cis-platinum (1 μM). After incubation for 5 days, cell growth was measured by the MTT assay (16).

In assay [3] the test system is MCF10A cells. The assay is described as follows: Cell proliferation screen (SYBR Green, Biomek FX). Format: cell-based, human. Particulars: 50 μM; percentage of values obtained with DMSO alone. The procedure: The ability of the compounds identified by CADD to inhibit proliferation of normal mammary epithelial MCF10A cells and colon carcinoma HCT116 cells was determined using a Biomek FX Laboratory Automation Workstation (Beckman Coulter, Inc., Fullerton, Calif.). On day 0, 20 μl of complete medium containing the appropriate number of cells (150-300) was plated per well of a 384-well tissue plate (Fisher Scientific, Hampton, N.H.) and incubated overnight at 37° C. with 5% CO2 and 90% humidity. Next day, day 1, compounds were prepared by serial dilution with complete medium to yield the concentration 100 μM, and 20 μl was added to each well containing 20 μl of medium and cells yielding the final concentration 50 μM in 40 μl volume. Plates were incubated for additional 3 days (days-2-5) until control cells (0.5% DMSO) reached ˜70-80% confluency. On day 6, 40 μl of lysis/detection solution containing 1.2% Igepal CA-630 (Sigma) and a 1:1000 dilution of SYBR Green I nucleic acid stain (Molecular Probes, Eugene, Oreg.) was added to each well. Following an overnight incubation at 37° C., total fluorescence was measured using a Fluorostar Galaxy plate reader with a 485 nm excitation filter and 520 nm emission filter set (BMG Labtech, Inc., Durham, N.C.). Data was exported to a custom program that determined growth inhibition by dividing each individual fluorescence value by the average of fluorescence values obtained with cells treated with DMSO alone.
The 192 human DNA ligase inhibitors were screened in parallel for effects on proliferation and the ability to potentiate the effects of several DNA damaging agents using two cell human lines, a colon cancer line HCT116 and a normal breast epithelial cell line MCF10A using a Biomek FX Laboratory Automation Workstation as described (23). The DNA damaging agents used, methyl methanesulfonate (MMS), camptothecin, cis-platinum, 3 aminobenzamide and ionizing radiation, are representatives of classes of agents used to treat cancer. Briefly, HCT116 and MCF10A cells were plated in 96 well plates such that the cultures were about 80% confluent after 5 days incubation. Compounds were added to the cultures at either 15 μM or 50 μM 1 day after plating. After incubation for 3 days, cell lysed in a solution containing 1.2% Igepal CA-630 and SYBR green that stains DNA (1:1000, Molecular Probes, Eugene, Oreg.). Subsequently, fluorescence was measured per well. The studies with DNA damaging agents were performed as follows. […] For ionizing radiation, cells were pre-incubated with the compounds at 50 μM for 1 hour prior to exposure to 2 gray of ionizing radiation. Cultures were incubated for 3 days and then treated as above.

[4] abbreviates: sections 'high concentrations (~50 μM)' and 'active in vitro that decreased cell growth', same figures given in μM elsewhere in Table 6, read-out: IC50 MCF10A (head without unit).

The record followed here is patent publication US9757375B2, “Compounds that inhibit human DNA ligases and methods of treating cancer” (University of Maryland, Baltimore, priority 2007, dated 2017).

Where two headings read alike, the source gives them in different places. Marks after values point to notes of the source that are not given here.

T1 sequence (P18858 whole entry): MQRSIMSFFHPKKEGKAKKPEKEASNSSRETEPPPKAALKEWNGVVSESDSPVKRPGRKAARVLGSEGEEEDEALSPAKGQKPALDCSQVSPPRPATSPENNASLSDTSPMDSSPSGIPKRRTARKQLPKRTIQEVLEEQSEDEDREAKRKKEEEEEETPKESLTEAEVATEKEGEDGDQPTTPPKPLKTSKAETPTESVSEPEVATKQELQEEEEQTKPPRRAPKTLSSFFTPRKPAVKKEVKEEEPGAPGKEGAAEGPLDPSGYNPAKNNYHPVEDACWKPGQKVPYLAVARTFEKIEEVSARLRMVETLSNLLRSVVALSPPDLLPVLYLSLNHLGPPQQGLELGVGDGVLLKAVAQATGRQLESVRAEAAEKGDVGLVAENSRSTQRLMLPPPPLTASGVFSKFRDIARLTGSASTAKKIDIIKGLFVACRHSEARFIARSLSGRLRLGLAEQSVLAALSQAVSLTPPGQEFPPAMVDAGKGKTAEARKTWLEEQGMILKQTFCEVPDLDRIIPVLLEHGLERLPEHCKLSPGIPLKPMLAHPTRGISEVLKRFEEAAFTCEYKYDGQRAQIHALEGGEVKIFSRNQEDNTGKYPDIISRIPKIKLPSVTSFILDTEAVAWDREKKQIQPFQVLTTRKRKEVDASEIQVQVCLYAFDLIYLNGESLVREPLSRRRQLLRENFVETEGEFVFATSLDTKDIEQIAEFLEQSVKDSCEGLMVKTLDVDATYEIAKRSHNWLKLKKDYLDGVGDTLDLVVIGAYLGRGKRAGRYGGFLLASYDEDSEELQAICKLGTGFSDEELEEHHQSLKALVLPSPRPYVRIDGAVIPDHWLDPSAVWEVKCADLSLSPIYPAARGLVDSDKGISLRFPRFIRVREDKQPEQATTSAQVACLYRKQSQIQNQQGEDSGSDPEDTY

For orientation: inhibition means the relative decrease from the control value, in per cent. Broadly, the IC50 is the point on the concentration scale where inhibition reaches its midpoint. For the compound `C=CCN1C(=O)/C(=C\c2ccccc2C(=O)O)SC1=S` [Compound 159], the inhibition at 100 µM on hLigI (100 μM), at human DNA ligase III and at human DNA ligase IV was less than 20% throughout. In addition, the “MMS: Ratios of IC50 MCF10A” value with MCF10A cells [1] is “Ni”. Besides, the concentration for half-maximal inhibition (IC50) in the assay on HCT116 cells (cell growth, compound alone, read-out: IC50 (μM) HCT116) was 50 µM; in the assay with HCT116 cells (sections 'high concentrations (~50 μM)' and 'active in vitro that decreased cell growth', same figures given in μM elsewhere in Table 6, read-out: IC50 HCT116 (head without unit)), no less than 50 µM; in the assay with MCF10A cells [2] (setting [4]), greater than 50 µM.
Turning to `CC(C(=O)Nc1cccc(C(=O)O)c1)N(C)S(=O)(=O)c1ccccc1` (stereo not drawn) [Compound 199], on hLigI (100 μM), the “% of inhibition @ 100 μM (Helen's data) hLigI” value was “NI (NI- no inhibition)”. In addition, the “% of inhibition @ 100 μM (Helen's data) hLigIII” value at human DNA ligase III (100 μM) is reported as “NI (NI- no inhibition)”. In addition, the “% of inhibition @ 100 μM (Helen's data) hLigIV” value on human DNA ligase IV is “NI (NI- no inhibition)”. Also, the “inhibition of cell proliferation of MCF10A at 50 μM (MTT)” value in the assay with MCF10A cells [2] (50 μM, numbers printed under MCF10A in r92-r106: 79, 124, 130, 193, 197, 198, 199 (30%), 214, 221) is listed as 199^t (30%).
In the case of `O=c1[nH]cc(/C=N/Nc2ncnc3[nH]cnc23)c(=O)[nH]1` [Compound 208], the results for the inhibition at 100 µM on hLigI (100 μM), at human DNA ligase III and at human DNA ligase IV were 21%, 24% and less than 20%, respectively. Also, the IC50 in the assay on MCF10A cells [2] (cell growth, compound alone, read-out: IC50 (μM) MCF10A) amounted to 40 µM; in the assay on MCF10A cells [2] (setting [4]) it was 40 µM.
As to `O=C1N/C(=N\c2ccccc2)S/C1=C/c1ccc(-c2cccc(C(=O)O)c2)o1` [Compound 202], the “inhibition of hLigI (DNA ligase I), in words” value on hLigI (in vitro screen, 100 μmol/L, the 15 hLigI inhibitors inhibited by >50%) was “inhibited hLigI”. Also, the “Growth_Inh % (50 μM) MCF10A” value with MCF10A cells [3] was determined as 50%.
